This is an account of results in ChEMBL document CHEMBL5244275, “Geminal Diheteroatomic Motifs: Some Applications of Acetals, Ketals, and Their Sulfur and Nitrogen Homologues in Medicinal Chemistry and Drug Design” (J Med Chem, 2021).

The target in data set [1] is Polymerase acidic protein (Influenza A virus (A/Puerto Rico/8/1934(H1N1)), UniProt P03433). The data set is described as follows: Inhibition of Influenza A virus CEN.
Data set [2] has as its system Mus musculus. The data set is described as follows: Anticonvulsant activity in MES induced mouse model of seizure at 75 mg/kg, po measured after 4 hrs relative to control. It is filed as functional.
For data set [3], the species on record is Mus musculus. Put plainly: Analgesic activity in mouse assessed as protection against phenylbenzoquinone-induced writhing. It is filed as functional. On the technique in general: An intraperitoneal irritant provokes the stretching counted in writhing tests.
Data set [4] is described as follows: Drug metabolism at pH 2 assessed as parent compound remaining measured after 120 mins. The conditions noted are these: read-out: Drug metabolism. It is filed as physicochemical.
The test system of data set [5] is Human immunodeficiency virus 1. Put plainly: Antiviral activity against HIV-1 RF. The format is functional, organism-based. The conditions noted are these: Human immunodeficiency virus 1, RF.
In data set [6] the test system is Human immunodeficiency virus 1. Put plainly: microbe, parasite or virus in culture. The following applies: Human immunodeficiency virus 1, LAV.
The nature of data set [7]: Stability of the compound assessed as compound hydrolysis by measuring relative rate constant by dilatometric method. The format is physicochemical.
The nature of data set [8]: Oral bioavailability in human. The format is ADME, organism-based. The conditions noted are these: in vivo.
For a further data set, the system named is CCRF-CEM. The data set is described as follows: Anticancer activity against human CCRF-CEM cells. It is filed as functional, cell-based.
Data set [9] is described as follows: Bioavailability in dog at 1 mg/kg, iv measured after 30 mins by LC-MS/MS analysis. It is filed as ADME, organism-based, Canis lupus familiaris. The following applies: in vivo.
Data set [10] can be described thus: Unbound fraction in human plasma. It is filed as ADME, cell-free.
Data set [11] is described as follows: Half-life in human. It is filed as ADME.
In another data set the target is PXR (NR1I2) (Homo sapiens, UniProt O75469). Put plainly: Activation of PXR (unknown origin) in human DPX2 cells assessed as maximal efficacy at 15 uM relative to control. It is filed as cell-based.
A short description of data set [12]: Bioavailability in rat at 0.5 mg/kg, iv measured after 30 mins by LC-MS/MS analysis. The format is ADME, organism-based. The following applies: in vivo.
In data set [13] the test system is Human immunodeficiency virus 1. The data set is described as follows: Selectivity index, ratio of EC50 for antiviral activity against HIV-1 G140S/Q148R mutant to EC50 for antiviral activity against wild-type HIV-1. It is filed as functional.
The test system of data set [14] is Human immunodeficiency virus 1. Put plainly: Antiviral activity against HIV1 infected in human MT4 cells assessed as inhibition of viral replication. The format is functional, organism-based. The conditions noted are these: Human immunodeficiency virus 1, MT4.
Data set [15] is described as follows: Solubility of the compound at pH 7 incubated for 12 hrs by UPLC analysis. The conditions noted are these: buffer, pH 7, 12 h. It is filed as physicochemical.
A short description of data set [16]: Inhibition of Acinetobacter baumannii beta-lactamase OXA-235.
Data set [17] is described as follows: Inhibition of Acinetobacter baumannii beta-lactamase OXA-24.
Data set [18] is described as follows: Inhibition of Acinetobacter baumannii beta-lactamase OXA-143.
Data set [19] in a line: Stability of the compound at pH 1.3 assessed as degradation half life. The format is physicochemical. The following applies: buffer.
A short description of data set [20]: Stability of the compound at pH 7.30 assessed as degradation half life. The format is physicochemical. The conditions noted are these: buffer, pH 7.3.
Data set [21] in a line: Aqueous solubility of the compound at pH 1.3 to 8. The following applies: buffer. The format is physicochemical.
A short description of data set [22]: Solubility of the compound at pH 7.4. The format is physicochemical. The conditions noted are these: buffer.
Data set [23] addresses Muscarinic acetylcholine receptor M2 (Homo sapiens, UniProt P08172). The data set is described as follows: Antagonist activity at muscarinic M2 receptor (unknown origin) assessed as inhibition constant.
A short description of data set [24]: Drug degradation in citrate buffer at pH 8.5 measured after 18 hrs. The format is physicochemical. The following applies: read-out: Drug degradation.
The nature of data set [25]: Drug degradation in citrate buffer at pH 4 measured after 18 hrs. It is filed as physicochemical. The conditions noted are these: read-out: Drug degradation.
The nature of data set [26]: Dissociation constant, pKa of the compound. The format is physicochemical.
For data set [27], the target named is Somatostatin receptor type 2 (Homo sapiens, UniProt P30874). The data set is described as follows: Inhibition of human SSTR2.
A short description of data set [28]: Oral bioavailability in dog. It is filed as ADME, organism-based, Canis lupus familiaris. The following applies: in vivo.
Data set [29] can be described thus: Half-life in human plasma. The format is ADME.
For data set [30], the system named is Mus musculus. The data set is described as follows: Anticonvulsant activity in MES induced mouse model of seizure at 10 mg/kg, po measured after 4 hrs relative to control. The format is functional.
A short description of data set [31]: Drug excretion in human urine assessed as unchanged drug excreted. The following applies: read-out: Drug excretion. It is filed as ADME.

In brackets after ≈: the same amount, converted by molar mass.

PXR (NR1I2), sequence (O75469 whole entry): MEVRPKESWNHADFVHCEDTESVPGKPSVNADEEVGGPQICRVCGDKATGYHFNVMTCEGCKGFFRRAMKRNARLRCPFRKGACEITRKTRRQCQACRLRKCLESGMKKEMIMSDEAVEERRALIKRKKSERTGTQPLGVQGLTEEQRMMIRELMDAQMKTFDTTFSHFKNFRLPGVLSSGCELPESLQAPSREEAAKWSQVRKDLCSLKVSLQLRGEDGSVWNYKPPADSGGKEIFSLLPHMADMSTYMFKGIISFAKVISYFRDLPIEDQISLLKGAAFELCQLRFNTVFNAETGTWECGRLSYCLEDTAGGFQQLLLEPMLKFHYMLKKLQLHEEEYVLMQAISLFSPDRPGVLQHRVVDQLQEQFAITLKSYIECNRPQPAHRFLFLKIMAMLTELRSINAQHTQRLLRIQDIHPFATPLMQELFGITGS
Muscarinic acetylcholine receptor M2, sequence (P08172 whole entry): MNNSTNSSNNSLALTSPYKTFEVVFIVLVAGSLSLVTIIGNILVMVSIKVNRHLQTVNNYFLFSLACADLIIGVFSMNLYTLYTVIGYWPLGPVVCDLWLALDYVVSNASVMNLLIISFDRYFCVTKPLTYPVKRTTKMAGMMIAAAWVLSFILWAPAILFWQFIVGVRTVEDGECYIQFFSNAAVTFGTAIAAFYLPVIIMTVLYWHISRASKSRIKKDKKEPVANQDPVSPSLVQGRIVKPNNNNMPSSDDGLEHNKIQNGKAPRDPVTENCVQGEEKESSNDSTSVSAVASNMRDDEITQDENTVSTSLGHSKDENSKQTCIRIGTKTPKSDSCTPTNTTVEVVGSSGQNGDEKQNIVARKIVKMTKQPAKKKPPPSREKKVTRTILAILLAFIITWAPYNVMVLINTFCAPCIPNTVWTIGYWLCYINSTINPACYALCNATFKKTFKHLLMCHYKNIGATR
Somatostatin receptor type 2, sequence (P30874 whole entry): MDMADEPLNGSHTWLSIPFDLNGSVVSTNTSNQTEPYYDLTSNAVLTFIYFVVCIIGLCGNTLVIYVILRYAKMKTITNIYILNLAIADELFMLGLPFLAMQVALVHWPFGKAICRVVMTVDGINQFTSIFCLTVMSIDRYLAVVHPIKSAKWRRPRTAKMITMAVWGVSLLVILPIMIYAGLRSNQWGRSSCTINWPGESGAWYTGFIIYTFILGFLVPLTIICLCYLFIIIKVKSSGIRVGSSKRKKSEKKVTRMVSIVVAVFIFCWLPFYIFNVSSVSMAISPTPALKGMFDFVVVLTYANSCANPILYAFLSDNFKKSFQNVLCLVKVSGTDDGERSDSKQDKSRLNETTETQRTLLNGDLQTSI

A word on the IC50: it is the concentration that inhibits the measured activity by half. Lower therefore signals greater potency in that assay. In data set [1], `COC(=O)OCOc1c2n(ccc1=O)N([C@@H]1c3ccccc3SCc3c1ccc(F)c3F)[C@@H]1COCCN1C2=O` [BALOXAVIR MARBOXIL] had an IC50 of 530 nM.
On to `CC1(C)O[C@H]2[C@H](O)[C@H](O)CO[C@@]2(COS(N)(=O)=O)O1`, for which the Activity in the data set with Mus musculus [2] was 40%.
As usually defined, the ED50 is the dose that gives a 50% effect, or the effect in half of the subjects. For `c1ccc([C@]23OC[C@H](CCn4c2nc2ccccc24)O3)cc1`, the ED50 in the data set filed under Mus musculus [3] was found to be 30 mg/kg. The remaining at 2 h in data set [4] worked out at 93.5%.
Broadly, the EC50 is the concentration needed to bring the measured effect to its halfway point. `Nc1ccn([C@@H]2CS[C@H](CO)O2)c(=O)n1` [LAMIVUDINE] gave an IC50 in data set [5] of 870 nM. This compound displayed an EC50 in data set [6] of 2000 nM.
Take `C1COCO1`: the K in data set [7] was determined as 1.
In general, bioavailability refers to the share of a dose that reaches the circulation, judged against a reference dose that is usually intravenous. A higher bioavailability goes with good availability. As for `Nc1nc(Cl)nc2c1ncn2[C@@H]1O[C@H](CO)[C@@H](O)[C@@H]1F` [CLOFARABINE], the bioavailability in [8] worked out at 57%. Half-maximal inhibition with CCRF-CEM (IC50) required 60 nM.
As usually defined, the half-life is how long it takes for the measured level to halve. As usually defined, the Emax is the maximal effect, on the per cent scale that the assay sets. What is called solubility is how much of the substance goes into solution per volume. Low values mean a poorly soluble substance, high ones a readily soluble substance. In the case of `C[C@@H]1CCO[C@H]2Cn3cc(C(=O)NCc4ccc(F)cc4F)c(=O)c(O)c3C(=O)N12` [DOLUTEGRAVIR], the bioavailability stood at 17% in [9] and 52% in data set [12]. Further, in [10], the Fu stood at 0.7%. Further, the half-life in data set [11] was 14 h. Also, the maximal response (Emax) at 15 µM at PXR (NR1I2) is 51%. The “Ratio EC50” value in data set [13] was 4.8. For the same compound, the EC50 in data set [14] was found to be 1.7 nM. In data set [15], this compound yielded a solubility of 53 µg/mL (≈ 126 µM).
Take `C[C@]1(Cn2ccnn2)[C@H](C(=O)O)N2C(=O)C[C@H]2S1(=O)=O` [TAZOBACTAM]: the concentration for half-maximal inhibition (IC50) in data set [16] amounted to 4880 nM; in data set [17] it was 27900 nM; in [18] it was 5900 nM.
In the case of `COc1cc([C@@H]2c3cc4c(cc3[C@@H](O[C@@H]3O[C@@H]5CO[C@@H](C)O[C@H]5[C@H](O)[C@H]3O)[C@H]3COC(=O)[C@H]23)OCO4)cc(OC)c1O` [ETOPOSIDE], the half-life in data set [19] was 2.88 h; in [20], 27.7 h. In data set [21], this compound yielded a solubility of 116 µg/mL (≈ 197 µM).
Regarding `O=C(NCc1c(F)cc(F)cc1F)c1cn2c(c(O)c1=O)C(=O)N1[C@H]3CC[C@H](C3)O[C@@H]1C2` [BICTEGRAVIR], the bioavailability in data set [9] was determined as 28%; in [12], 50%. The Fu in data set [10] is 0.3%. This compound also showed a half-life in [11] of 19 h. Also, the maximal effect (Emax) at 15 µM at PXR (NR1I2) was 18%. Moreover, the “Ratio EC50” value in [13] stood at 2. For the same compound, in data set [14], the EC50 was found to be 1.9 nM. Besides, in [15], the concentration in solution (solubility) came to 119 µg/mL (≈ 265 µM).
As for `Nc1nc2c(ncn2COCCO)c(=O)[nH]1` [ACYCLOVIR], the solubility in data set [22] was 2500 µg/mL (≈ 11100 µM).
Same read-out and setting: as for `Nc1nc(O)c2ncn(COC(CO)CO)c2n1` [GANCICLOVIR], the figure is 2000 µg/mL (≈ 7840 µM).
Broadly, the Ki is the dissociation constant of the complex between target and ligand, obtained from inhibition or displacement. As for `CCCS(=O)(=O)N1CCC(N2CCC(C3(c4ccc(S(=O)(=O)c5ccc6c(c5)OCO6)cc4)CCCO3)CC2)CC1` (stereo not given), the Ki in [23] worked out at 5 nM.
The compound `O=C1c2c(O)c(=O)ccn2N([C@@H]2c3ccccc3SCc3c2ccc(F)c3F)[C@@H]2COCCN12` [BALOXAVIR] had a half-life in data set [11] of 79 h. This compound also showed an IC50 in [1] of 2.5 nM.
The term pKa denotes the pH at which an ionisable group is half protonated. Low values mean a group that gives up its proton readily, high ones a group that holds its proton tightly. In the case of `CC(=O)NC[C@H]1CN(c2ccc(N3CCOCC3)c(F)c2)C(=O)O1` [LINEZOLID], the degraded at 18 h was 40% in data set [24] and < 1% in [25]. Also, the pKa in data set [26] is < 6.
The compound `C[C@@H](c1c[nH]c2ccccc12)[C@H](C(=O)N[C@@H](CCCCN)C(=O)OC(C)(C)C)N1CCN(CCCc2ccccc2)C1=O` displayed an inhibitory constant (Ki) in data set [27] of 3.6 nM. In data set [28], this compound gave a bioavailability of 5%.
`CC1(C)O[C@@H]2[C@@H](CO[C@@]3(COS(N)(=O)=O)OC(C)(C)O[C@@H]23)O1` [TOPIRAMATE] returned a bioavailability in [8] of 80%. Besides, the half-life in data set [29] is 21 h. For the same compound, the Activity with Mus musculus [30] is 80%. The dose excreted in [31] was 70%.
